Experimental data: a melting point compilation (Tetko et al.; mined from patent text by program, amines drawn as free bases though some values may be those of a salt)

Structure (SMILES)	melting point [°C]
N#Cc1ccc(NCCCN2C3CCC2CNC3)cc1	44 to 46
COc1ccc(-c2c(C(=O)O)c(CSc3nccn3C)nc3cc(OC)c(OC)cc23)cc1OC	213 to 214
Cc1cccc(NC(=O)Nc2ccc(-c3c(C(C)C)sc4ncnc(N)c34)cc2)c1	169 to 171
O=C(Nc1ccc(Oc2ccc(N3CCC(O)CC3)cc2)cc1)c1ccc(Cl)c(Cl)c1	178 to 180
c1ccc(-c2ncc(-c3cnc(C4CCCNC4)[nH]3)cn2)cc1 (stereo not given)	140
CC(Oc1cccc(OCc2ccc3ccc(Br)cc3n2)c1)C(=O)O (stereo not given)	178
CS(=O)(=O)c1ccc(-c2coc3ccc(-c4nnc(N)o4)cc23)cc1Cl	263 to 264
O=C1C=CC(=O)N1CCN1C(=O)C=CC1=O	193 to 194
CC(C)n1nc(-c2cc(-c3ccn[nH]3)cnc2-c2ccccc2)ccc1=O	212 to 213
COc1ccc(Br)cc1-c1cc(-c2cccc(Br)c2)on1	149 to 150
CC(=O)OCc1csc(-c2nc3n(c2-c2ccncc2)CCC3)c1	126
CCOC(=O)C(=CNc1ccc(CO)cc1I)C(=O)OCC	152 to 154
Clc1nc2cccc3c2n1CCC3	78
CC(=O)NCc1cccc(C#N)c1	94 to 96
CCn1nc(C(C)(C)C)c2c1C(=S)NCC(c1ccccc1)=N2	230
COC(=O)c1nc(-c2ccc(Cl)c(OC)c2F)nc(N)c1F	200 to 202
CC(C)(C)c1ccc(CCC(O)CC2CCCCC2)cc1NC(=O)CC1c2ccccc2Oc2ccccc21 (stereo not given)	141 to 142
COc1cc2c(cc1O)CC(C)(C)N=C2	152 to 157
CCN(c1ccc(N2CCN(c3ccc(O)cc3)CC2)cc1)c1nccs1	215
Oc1ccc(C(=S)N2CCOCC2)cc1	205

Structure (SMILES)	melting point [°C]
CCCN(c1ccccc1)C1CCN(CCOc2c(C)cccc2C)CC1	82
CSCCC(=O)Nc1ccc(-n2nc(C(F)(F)F)cc2C(F)(F)F)cc1	122 to 123
COC(=O)[C@@H]1Cc2cc(OC)c(O)cc2C(=O)N1	280 to 285
Cc1ccn(-c2ccc(C(=O)N3Cc4ccc(CN(C)C)n4Cc4ccccc43)c(Cl)c2)n1	100 to 102
CCOC(=O)C1CCc2cc(NS(C)(=O)=O)ccc2O1 (stereo not given)	111
O=C(NCc1cccnc1)c1ccc2n1Cc1ccccc1N(C(=O)c1ccc(-c3ccccc3CN3CCCC3)cc1)C2	210 to 212
FC(F)(F)Oc1ccc(Nc2cc(N3CCCC3)cc(-c3ccccc3)n2)cc1	141 to 143
CN1CCc2cc(Cl)c(N)cc2[C@@H](c2ccccc2)C1	68 to 70
CCN(CC)C(=O)NCCc1cccc(-c2nc(=O)c3ccccc3s2)n1	175 to 176
CC(C)(O)C(CS(=O)(=O)c1ccccc1)C(F)(F)F (stereo not given)	59 to 60
CC1=C(C(=O)O)C(c2cccc([N+](=O)[O-])c2)C(C(=O)OCCNC(=O)c2cccnc2)=C(C)N1 (stereo not given)	151 to 152
CCCc1nc2c(N)nc3ccccc3c2o1	159 to 160
COC(=O)C1CC2=C(CO1)C(=O)C=CC2=O (stereo not given)	55 to 58
CS(=O)(=O)N1CCC(NC(=O)Nc2cccc(F)c2)CC1	212 to 214
Cc1cccc(Nc2ncnc3ccc(CSc4nc5ccccc5[nH]4)cc23)c1	123 to 129
Cc1c(S(=O)(=O)c2ccc(=O)[nH]n2)oc2ccccc12	182 to 183
COc1cc(C)cc(Sc2cccc(F)c2C#N)c1	94 to 95
CCCCCc1cc(C(=O)OC)ccc1O	82.5 to 83.5
O=c1[nH]nc(-c2ccc(NN=C(c3ccc(O)cc3O)c3ccc(O)cc3O)cc2)c2ccccc12	140 to 146
CS(=O)(=O)c1ccc(-c2ncccc2C(=O)c2cccc(F)c2)cc1	157 to 159
